Reference: patent US6673791B2, “Non-nucleoside reverse transcriptase inhibitors” (Boehringer Ingelheim (Canada) Ltd., priority 2001, dated 2004)

tested on: WT RT (HIV-1 wild type strain); assay: EC50 assay, WT RT strain; type: cell-based; settings: Human immunodeficiency virus 1, read-out: EC50 WT RT (nM)
Description: (§1) Reverse TranscriptASE (RT) Assays
(§2) The assays are as described in WO 01/96338A1, the contents of which are hereby incorporated herein. The results are listed in Tables 8 as IC50(nM) and EC50(nM).

SMILES | EC50
CCN1c2ncc(CCOc3ccc(CC(=O)NN)c4ccccc34)cc2C(=O)N(C)c2cccnc21 [Entry 1015] | < 100 nM
CCN1c2ncc(CCOc3ccc(C(=O)O)c4c3CCCC4)cc2C(=O)N(C)c2ccc(Cl)nc21 [Entry 5002] | < 100 nM
CCN1c2ncc(CCOc3ccc(/C=C/C(=O)O)c4ccccc34)cc2C(=O)N(C)c2cccnc21 [Entry 1028] | < 100 nM
CCN1c2ncc(CCOc3ccc(C(=O)O)c4c3CCCC4)cc2C(=O)N(C)c2ccc(F)nc21 [Entry 5003] | < 100 nM
CCN1c2ncc(CCOc3ccc(CC(=O)O)c4ccccc34)cc2C(=O)Nc2c(C)cc(Cl)nc21 [Entry 1012] | < 100 nM
CCN1c2ncc(CCOc3ccc(C(=O)O)c4c3CCCC4)cc2C(=O)N(C)c2ccc(C)nc21 [Entry 5004] | < 100 nM
CCN1c2ncc(CCOc3ccc(C(=O)O)c4c3CCC4)cc2C(=O)N(C)c2ccc(Cl)nc21 [Entry 4002] | < 100 nM
CCN1c2ncc(CCOc3ccc(CCC(=O)O)c4ccccc34)cc2C(=O)N(C)c2cccnc21 [Entry 1021] | < 100 nM

same assay, conditions: wild type; read-out: EC50 WT RT

SMILES | EC50
CCN1c2ncc(CCOc3ccc(NC(=O)CCC(=O)O)c4ccccc34)cc2C(=O)N(C)c2cccnc21 [Entry 2006] | < 100 nM

tested on: K103N/Y181C (HIV-1 double mutant strain); assay: EC50 assay, K103N/Y181C strain; type: cell-based; settings: Human immunodeficiency virus 1, read-out: EC50 K103N/Y181C (nM), K103N/Y181C double mutant
Description: as §1, §2

SMILES | EC50
CCN1c2ncc(CCOc3ccc(CC(=O)NN)c4ccccc34)cc2C(=O)N(C)c2cccnc21 [Entry 1015] | < 100 nM
CCN1c2ncc(CCOc3ccc(C(=O)O)c4c3CCCC4)cc2C(=O)N(C)c2ccc(Cl)nc21 [Entry 5002] | < 100 nM
CCN1c2ncc(CCOc3ccc(/C=C/C(=O)O)c4ccccc34)cc2C(=O)N(C)c2cccnc21 [Entry 1028] | < 100 nM
CCN1c2ncc(CCOc3ccc(C(=O)O)c4c3CCCC4)cc2C(=O)N(C)c2ccc(F)nc21 [Entry 5003] | < 100 nM
CCN1c2ncc(CCOc3ccc(CC(=O)O)c4ccccc34)cc2C(=O)Nc2c(C)cc(Cl)nc21 [Entry 1012] | 100 to 1000 nM
CCN1c2ncc(CCOc3ccc(C(=O)O)c4c3CCCC4)cc2C(=O)N(C)c2ccc(C)nc21 [Entry 5004] | < 100 nM
CCN1c2ncc(CCOc3ccc(C(=O)O)c4c3CCC4)cc2C(=O)N(C)c2ccc(Cl)nc21 [Entry 4002] | < 100 nM
CCN1c2ncc(CCOc3ccc(CCC(=O)O)c4ccccc34)cc2C(=O)N(C)c2cccnc21 [Entry 1021] | < 100 nM

same assay, conditions: K103N/Y181C double mutant; read-out: EC50 K103N/Y181C

SMILES | EC50
CCN1c2ncc(CCOc3ccc(NC(=O)CCC(=O)O)c4ccccc34)cc2C(=O)N(C)c2cccnc21 [Entry 2006] | 100 to 1000 nM

target: T1, K103N/Y181C double mutant RT (HIV-1 RT) (Human immunodeficiency virus type 1 group M subtype B, UniProt P03366, K702N/Y780C); assay: biochemical; settings: not given
T1 construct: mutations that occur in the reverse transcriptase segment of the pol gene

SMILES | IC50
CCN1c2ncc(CCOc3ccc(CC(=O)NN)c4ccccc34)cc2C(=O)N(C)c2cccnc21 [Entry 1015] | < 100 nM
CCN1c2ncc(CCOc3ccc(C(=O)O)c4c3CCCC4)cc2C(=O)N(C)c2ccc(Cl)nc21 [Entry 5002] | 100 to 1000 nM
CCN1c2ncc(CCOc3ccc(/C=C/C(=O)O)c4ccccc34)cc2C(=O)N(C)c2cccnc21 [Entry 1028] | 100 to 1000 nM
CCN1c2ncc(CCOc3ccc(C(=O)O)c4c3CCCC4)cc2C(=O)N(C)c2ccc(F)nc21 [Entry 5003] | 100 to 1000 nM
CCN1c2ncc(CCOc3ccc(CC(=O)O)c4ccccc34)cc2C(=O)Nc2c(C)cc(Cl)nc21 [Entry 1012] | 100 to 1000 nM
CCN1c2ncc(CCOc3ccc(C(=O)O)c4c3CCCC4)cc2C(=O)N(C)c2ccc(C)nc21 [Entry 5004] | 100 to 1000 nM
CCN1c2ncc(CCOc3ccc(C(=O)O)c4c3CCC4)cc2C(=O)N(C)c2ccc(Cl)nc21 [Entry 4002] | < 100 nM
CCN1c2ncc(CCOc3ccc(CCC(=O)O)c4ccccc34)cc2C(=O)N(C)c2cccnc21 [Entry 1021] | 100 to 1000 nM

same assay, conditions: K103N/Y181C double mutant RT; read-out: IC50 K103N/Y181C

SMILES | IC50
CCN1c2ncc(CCOc3ccc(NC(=O)CCC(=O)O)c4ccccc34)cc2C(=O)N(C)c2cccnc21 [Entry 2006] | 100 to 1000 nM

target: T2, Y188L mutant RT (HIV-1 RT) (Human immunodeficiency virus type 1 group M subtype B, UniProt P03366, Y787L); assay: biochemical; settings: IC50 Y188L (nM)
T2 construct: mutations that occur in the reverse transcriptase segment of the pol gene

SMILES | IC50
CCN1c2ncc(CCOc3ccc(CC(=O)NN)c4ccccc34)cc2C(=O)N(C)c2cccnc21 [Entry 1015] | 100 to 1000 nM
CCN1c2ncc(CCOc3ccc(C(=O)O)c4c3CCCC4)cc2C(=O)N(C)c2ccc(Cl)nc21 [Entry 5002] | 100 to 1000 nM
CCN1c2ncc(CCOc3ccc(/C=C/C(=O)O)c4ccccc34)cc2C(=O)N(C)c2cccnc21 [Entry 1028] | 100 to 1000 nM
CCN1c2ncc(CCOc3ccc(C(=O)O)c4c3CCCC4)cc2C(=O)N(C)c2ccc(F)nc21 [Entry 5003] | 100 to 1000 nM
CCN1c2ncc(CCOc3ccc(CC(=O)O)c4ccccc34)cc2C(=O)Nc2c(C)cc(Cl)nc21 [Entry 1012] | > 1000 nM
CCN1c2ncc(CCOc3ccc(C(=O)O)c4c3CCCC4)cc2C(=O)N(C)c2ccc(C)nc21 [Entry 5004] | 100 to 1000 nM
CCN1c2ncc(CCOc3ccc(C(=O)O)c4c3CCC4)cc2C(=O)N(C)c2ccc(Cl)nc21 [Entry 4002] | 100 to 1000 nM
CCN1c2ncc(CCOc3ccc(CCC(=O)O)c4ccccc34)cc2C(=O)N(C)c2cccnc21 [Entry 1021] | > 1000 nM

same assay, conditions: read-out: IC50 Y188L

SMILES | IC50
CCN1c2ncc(CCOc3ccc(NC(=O)CCC(=O)O)c4ccccc34)cc2C(=O)N(C)c2cccnc21 [Entry 2006] | > 1000 nM

target: T3, V106A mutant RT (HIV-1 RT) (Human immunodeficiency virus type 1 group M subtype B, UniProt P03366, V705A); assay: biochemical; settings: IC50 V106A (nM)
T3 construct: mutations that occur in the reverse transcriptase segment of the pol gene

SMILES | IC50
CCN1c2ncc(CCOc3ccc(CC(=O)NN)c4ccccc34)cc2C(=O)N(C)c2cccnc21 [Entry 1015] | 100 to 1000 nM
CCN1c2ncc(CCOc3ccc(C(=O)O)c4c3CCCC4)cc2C(=O)N(C)c2ccc(Cl)nc21 [Entry 5002] | > 1000 nM
CCN1c2ncc(CCOc3ccc(/C=C/C(=O)O)c4ccccc34)cc2C(=O)N(C)c2cccnc21 [Entry 1028] | > 1000 nM
CCN1c2ncc(CCOc3ccc(C(=O)O)c4c3CCCC4)cc2C(=O)N(C)c2ccc(F)nc21 [Entry 5003] | > 1000 nM
CCN1c2ncc(CCOc3ccc(CC(=O)O)c4ccccc34)cc2C(=O)Nc2c(C)cc(Cl)nc21 [Entry 1012] | 100 to 1000 nM
CCN1c2ncc(CCOc3ccc(C(=O)O)c4c3CCCC4)cc2C(=O)N(C)c2ccc(C)nc21 [Entry 5004] | > 1000 nM
CCN1c2ncc(CCOc3ccc(C(=O)O)c4c3CCC4)cc2C(=O)N(C)c2ccc(Cl)nc21 [Entry 4002] | 100 to 1000 nM
CCN1c2ncc(CCOc3ccc(CCC(=O)O)c4ccccc34)cc2C(=O)N(C)c2cccnc21 [Entry 1021] | > 1000 nM

same assay, conditions: read-out: IC50 V106A

SMILES | IC50
CCN1c2ncc(CCOc3ccc(NC(=O)CCC(=O)O)c4ccccc34)cc2C(=O)N(C)c2cccnc21 [Entry 2006] | > 1000 nM

target: T4, WT RT (HIV-1 RT) (Human immunodeficiency virus type 1 group M subtype B, UniProt P03366); assay: biochemical; settings: not given
T4 construct: mutations that occur in the reverse transcriptase segment of the pol gene

SMILES | IC50
CCN1c2ncc(CCOc3ccc(CC(=O)NN)c4ccccc34)cc2C(=O)N(C)c2cccnc21 [Entry 1015] | < 100 nM
CCN1c2ncc(CCOc3ccc(C(=O)O)c4c3CCCC4)cc2C(=O)N(C)c2ccc(Cl)nc21 [Entry 5002] | < 100 nM
CCN1c2ncc(CCOc3ccc(/C=C/C(=O)O)c4ccccc34)cc2C(=O)N(C)c2cccnc21 [Entry 1028] | < 100 nM
CCN1c2ncc(CCOc3ccc(C(=O)O)c4c3CCCC4)cc2C(=O)N(C)c2ccc(F)nc21 [Entry 5003] | < 100 nM
CCN1c2ncc(CCOc3ccc(CC(=O)O)c4ccccc34)cc2C(=O)Nc2c(C)cc(Cl)nc21 [Entry 1012] | < 100 nM
CCN1c2ncc(CCOc3ccc(C(=O)O)c4c3CCCC4)cc2C(=O)N(C)c2ccc(C)nc21 [Entry 5004] | < 100 nM
CCN1c2ncc(CCOc3ccc(C(=O)O)c4c3CCC4)cc2C(=O)N(C)c2ccc(Cl)nc21 [Entry 4002] | < 100 nM
CCN1c2ncc(CCOc3ccc(CCC(=O)O)c4ccccc34)cc2C(=O)N(C)c2cccnc21 [Entry 1021] | < 100 nM

same assay, conditions: wild type RT; read-out: IC50 WT RT

SMILES | IC50
CCN1c2ncc(CCOc3ccc(NC(=O)CCC(=O)O)c4ccccc34)cc2C(=O)N(C)c2cccnc21 [Entry 2006] | < 100 nM
